Results published in paper PMC11477289, “Low-Basicity 5-HT6 Receptor Ligands from the Group of Cyclic Arylguanidine Derivatives and Their Antiproliferative Activity Evaluation” (International Journal of Molecular Sciences, 2024).
Converted amounts (≈) assume the structure as drawn.

Columns and labels:
CYP2D6 = molecular target: T1, CYP2D6 (Homo sapiens, UniProt P10635); assay: CYP2D6 P450-Glo assay (drug–drug interactions); assay type: biochemical; conditions: 0.01–25 µM
T1 construct: purchased Promega
T1 sequence (P10635 whole entry): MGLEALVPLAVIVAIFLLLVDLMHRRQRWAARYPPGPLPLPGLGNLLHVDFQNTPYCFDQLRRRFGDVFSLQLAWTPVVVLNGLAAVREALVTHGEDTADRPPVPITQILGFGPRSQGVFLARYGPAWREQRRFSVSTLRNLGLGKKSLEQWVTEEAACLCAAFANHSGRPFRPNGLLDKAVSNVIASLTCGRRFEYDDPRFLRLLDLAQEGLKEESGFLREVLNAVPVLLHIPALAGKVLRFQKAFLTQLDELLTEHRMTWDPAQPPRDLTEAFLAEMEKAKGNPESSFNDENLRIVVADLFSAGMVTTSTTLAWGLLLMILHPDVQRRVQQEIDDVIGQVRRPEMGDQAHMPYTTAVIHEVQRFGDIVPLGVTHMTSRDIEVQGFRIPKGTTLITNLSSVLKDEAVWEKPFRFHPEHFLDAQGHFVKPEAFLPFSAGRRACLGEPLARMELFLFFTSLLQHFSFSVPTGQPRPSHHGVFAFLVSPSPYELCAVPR
Procedure: (§1) The potential risk of drug–drug interactions (DDIs) was examined in luminescence-based CYP3A4 and CYP2D6 P450-Glo assays (Promega, Madison, WI, USA) (Figure 2A,B).
(§2) The influence on CYP3A4 and CYP2D6 activity by ligands was analyzed with luminescent CYP3A4 P450-Glo and CYP2D6 P450-Glo^TM (Madison, WI, USA). The compounds were tested in triplicate. The bioluminescence signal was measured with a microplate reader, Spark Cyto (Tecan, Männedorf, Switzerland), in the luminescence mode. Compounds were tested in triplicate in the range of 0.01–25 µM for both isoforms’ P450 cytochrome. KE and QD were used as the reference compounds for CYP3A4 and CYP2D6, respectively.

[1] = Fish embryo toxicity (FET) test, OECD 236; conditions: zebrafish (Danio rerio), in vivo, after 96 h of intoxication
Procedure: To determine the toxicity of the compounds [66], the fish embryo toxicity (FET) test was performed on zebrafish (Danio rerio) according to OECD Test 236. The collected embryos were transferred to a Petri dish with an E3 medium, consisting of 5 mM NaCl; 0.33 mM MgCl2; 0.33 mM CaCl2; and 0.17 mM KCl, and placed in 6-well plates, 10 embryos per well. Stock solutions were prepared in DMSO. The range of different concentrations of the solutions was prepared by dissolving stock solutions in the E3 medium each time directly before addition to the wells. The solutions were changed once daily, and the embryos were maintained in the incubator at 28.5 °C. At the end of the exposure period (96 hpf—hours postfertilization), acute toxicity was determined based on a positive outcome in any of the four visual indicators of lethality, including the coagulation of fertilized eggs, lack of somite formation, lack of detachment of the tailbud from the yolk sac, and lack of heartbeat. The value of LD50 was calculated. Heartbeats were recorded to observe cardiotoxic effects. A dose–response curve was generated using Prism 8.0.1 (GraphPad Software).
Figure 3 (A) Toxicity of PR 68 and PR 73 in vivo in Danio reiro embryo toxicity test. […] Cardiotoxicity of (B) PR 68 and (C) PR 73 measured as heart rate (beats per minute) on 5 dpf Danio rerio larvae, E3—fish embryo growth medium. […]

human 5-HT6 [2] = molecular target: T2, human 5-HT6 (Homo sapiens, UniProt P50406); assay: [3H]-LSD radioligand binding assay, 5-HT6R; conditions: HEK293 expressing human 5-HT6R, read-out: 5-HT6 Ki
T2 construct: expressed in transfected cells
T2 sequence (P50406 whole entry): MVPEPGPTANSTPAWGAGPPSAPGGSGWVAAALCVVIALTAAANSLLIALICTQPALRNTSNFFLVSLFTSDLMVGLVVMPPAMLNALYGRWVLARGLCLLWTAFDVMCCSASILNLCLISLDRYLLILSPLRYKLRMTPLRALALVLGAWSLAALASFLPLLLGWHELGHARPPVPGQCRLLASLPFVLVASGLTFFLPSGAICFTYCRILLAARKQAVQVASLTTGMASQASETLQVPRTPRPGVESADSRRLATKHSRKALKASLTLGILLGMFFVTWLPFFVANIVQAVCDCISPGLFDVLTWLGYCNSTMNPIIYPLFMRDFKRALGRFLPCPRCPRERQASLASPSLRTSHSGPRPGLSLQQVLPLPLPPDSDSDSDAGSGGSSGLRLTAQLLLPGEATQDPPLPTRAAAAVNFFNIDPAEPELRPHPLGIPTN
Procedure: Next, the ligands’ affinity for the 5-HT6 receptors was evaluated in the [^3H]-LSD radioligand binding assay. Experiments were performed in a stable HEK293 cell line expressing the human 5-HT6R.
The pellets were stored at −80 °C.

[3] = test system: AsPC-1 pancreas adenocarcinoma cell line; assay: Antiproliferative activity (MTS), AsPC-1; conditions: Homo sapiens, ASPC1, 72 h, read-out: IC50 Values AsPC-1
human 5-HT6 [4] = molecular target: T2, human 5-HT6; assay: Functional evaluation, cAMP (LANCE Ultra) in HEK293 cells; assay type: cell-based; conditions: antagonist mode, cAMP induced by 5-CT 1000 nM
Procedure: The supernatant was aspirated, and the cell pellet was resuspended in a stimulation buffer (1 × HBSS, 5 mM HEPES, 0.5 mM IBMX, 0.1% BSA).
The functional properties of compounds were evaluated using the LANCE Ultra cAMP detection kit (PerkinElmer). […] To investigate the antagonist activity, dopamine for D2R was added at a concentration of 10 nM, and for cell lines with 5-HT7R, 5-HT1AR, or 5-HT6R, 5-CT concentrations were adjusted, being, respectively, 10, 100, and 1000 nM, according to the receptor subtype.
For the quantification of cAMP levels, cells (5 µL) were incubated with a 5 µL mixture of necessary compounds for 30 min at room temperature in a 384-well white opaque microtiter plate (PerkinElmer). After incubation, the reaction was stopped, and cells were lysed by the addition of a 10 µL working solution (5 µL Eu-cAMP and 5 µL ULight-anti-cAMP). The assay plate was incubated for 1 h at room temperature. The time-resolved fluorescence resonance energy transfer (TR-FRET) signal was detected by an Infinite M1000 Pro (Tecan, Männedorf, Switzerland) using instrument settings from the LANCE Ultra cAMP detection kit manual.

5-HT7b receptor = 5-HT7b receptor (Homo sapiens, UniProt P34969); assay: [3H]-5-CT radioligand binding assay, 5-HT7
Chain of 5-HT7b receptor (P34969 1-432 limits assumed): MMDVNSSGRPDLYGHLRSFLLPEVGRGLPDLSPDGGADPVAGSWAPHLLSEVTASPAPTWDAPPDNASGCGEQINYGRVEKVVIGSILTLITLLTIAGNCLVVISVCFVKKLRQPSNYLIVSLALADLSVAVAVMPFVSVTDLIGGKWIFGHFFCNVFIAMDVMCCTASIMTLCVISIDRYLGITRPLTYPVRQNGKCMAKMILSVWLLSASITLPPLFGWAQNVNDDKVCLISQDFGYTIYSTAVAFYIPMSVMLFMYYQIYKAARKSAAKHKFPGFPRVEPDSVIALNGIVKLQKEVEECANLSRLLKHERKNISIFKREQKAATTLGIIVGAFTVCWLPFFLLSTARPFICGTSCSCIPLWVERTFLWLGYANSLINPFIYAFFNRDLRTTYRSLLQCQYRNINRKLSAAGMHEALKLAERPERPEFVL

[5] = test system: LN-229 glioblastoma cell line; assay: Antiproliferative activity (MTS), LN-229; conditions: Homo sapiens, LN-229, 72 h, read-out: IC50 Values LN-229
CYP3A4 = molecular target: T3, CYP3A4 (Homo sapiens, UniProt P08684); assay: CYP3A4 P450-Glo assay (drug–drug interactions); assay type: biochemical; conditions: 0.01–25 µM
T3 construct: purchased Promega
T3 sequence (P08684 whole entry): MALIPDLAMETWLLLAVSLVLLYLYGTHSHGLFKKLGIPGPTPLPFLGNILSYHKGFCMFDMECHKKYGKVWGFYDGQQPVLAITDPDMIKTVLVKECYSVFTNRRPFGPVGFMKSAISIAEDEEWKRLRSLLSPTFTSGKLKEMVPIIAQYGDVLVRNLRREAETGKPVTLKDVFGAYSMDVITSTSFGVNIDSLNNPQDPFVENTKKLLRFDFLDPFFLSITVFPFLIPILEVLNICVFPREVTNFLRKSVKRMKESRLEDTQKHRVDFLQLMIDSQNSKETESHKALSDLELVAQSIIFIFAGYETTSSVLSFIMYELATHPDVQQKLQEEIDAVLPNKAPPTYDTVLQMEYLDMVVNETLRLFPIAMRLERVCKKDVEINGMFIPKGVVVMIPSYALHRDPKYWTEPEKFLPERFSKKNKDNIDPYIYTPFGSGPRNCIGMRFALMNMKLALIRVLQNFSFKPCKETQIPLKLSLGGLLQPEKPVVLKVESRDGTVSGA
Procedure: as §1, §2

[6] = test system: 1321N1 astrocytoma cell line; assay: Antiproliferative activity (MTS), 1321N1; conditions: Homo sapiens, 1321-N1, 72 h, read-out: IC50 Values 1321N1
[7] = Metabolic stability in mouse liver microsomes (MLMs); assay type: in vitro ADME; conditions: 120 min; for remaining at 2 h, 50 µM: mouse, mouse liver microsomes
Procedure: The metabolic stability of PR 68, PR 73, and PR 76 were determined in mouse liver microsomes (MLMs).
The metabolic stability of PR 68 was estimated with mouse liver microsomes (MLMs) (Sigma-Aldrich, St. Louis, MO, USA). […] Cold methanol was then added to the reaction mixture to quench the reaction. The precipitated MLMs were centrifuged, and the supernatant was analyzed by LC/MS with a Waters ACQUITY™ TQD system with a TQ detector (Waters, Milford, USA).
(1 picture or pasted object on this page, not shown here)

HEK293 = assay: Cytotoxic activity on HEK293; assay type: cell-based; conditions: Homo sapiens
Excerpt: Table 6 Extended receptor affinity study, with functional tests and cytotoxic activity of selected compounds on HEK293. | column: HEK293 / IC50 [µM]

U-251 glioblastoma cells = assay: Antiproliferative activity (MTS), U-251; conditions: Homo sapiens, U-251, 72 h, read-out: IC50 Values U-251
5-HT5A receptor = 5-HT5A receptor (Homo sapiens, UniProt P47898); assay: [3H]-LSD radioligand binding assay, 5-HT5A
Chain of 5-HT5A receptor (P47898 whole entry): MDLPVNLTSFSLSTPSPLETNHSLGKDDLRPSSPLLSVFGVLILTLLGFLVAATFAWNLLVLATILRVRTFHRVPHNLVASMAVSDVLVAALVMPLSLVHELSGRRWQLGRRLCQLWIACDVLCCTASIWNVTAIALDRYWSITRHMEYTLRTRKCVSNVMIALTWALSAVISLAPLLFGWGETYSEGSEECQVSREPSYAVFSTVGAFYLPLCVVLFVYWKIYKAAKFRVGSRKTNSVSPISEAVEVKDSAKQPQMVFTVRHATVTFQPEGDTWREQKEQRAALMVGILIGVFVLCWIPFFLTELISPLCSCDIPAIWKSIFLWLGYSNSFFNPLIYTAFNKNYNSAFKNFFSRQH

[8] = test system: HepG2 human hepatoma cell line; assay: Hepatotoxicity, MTS assay; assay type: cell-based; conditions: 1–10 µM, 48 h
Procedure: The safety profile was estimated in the hepatotoxicity assay in the hepatoma HepG2 cell line (Figure 2B).
Hepatotoxicity was evaluated employing an MTS assay with a HepG2 human hepatoma cell line (ATCC: HB-8065). In brief, the cells were incubated for 48 h in 96-well plates with PR 68 (concentration range: 1–100 μM), or doxorubicin (DX, 1 µM; Sigma-Aldrich), which served as a control. Compounds were tested in a single experiment in quadruplicate. The absorbance in the MTS assay was measured by the Spark Cyto microplate reader (Tecan, Männedorf, Switzerland).

astrocyte cell line PG-4 = assay: Activity on normal astrocytes (MTS), PG-4; conditions: Felis catus, 72 h, read-out: IC50 Values PG-4

Which “drug–drug interactions, CYP2D6 activity” value (CYP2D6) does the source give for `CC1NC(NS(=O)(=O)c2cccc3ccccc23)=Nc2cccc(Cl)c21` (centres unmarked) [PR 68, N -(5-chloro-4-methyl-3,4-dihydroquinazolin-2-yl)naphthalene-1-sulfonamide] here?
The value was “should not exhibit drug–drug interactions”.

What about the LC50 at 96 h [1] of the same compound?
Its LC50 at 96 h is 7.82 µg/mL (≈ 20.3 µM).

What about the Ki (human 5-HT6 [2]) of the same compound?
The Ki was 0.037 ± 0.008 µM.

And the IC50 [3]?
Its IC50 is > 25 µM.

And the Kb (human 5-HT6 [4])?
Its Kb is 0.079 µM.

And the Ki (5-HT7b receptor)?
The Ki was 19.3 µM.

What about the IC50 [5] of the same compound?
The IC50 was > 25 µM.

And the “drug–drug interactions, CYP3A4 activity” value (CYP3A4)?
Its value is “should not exhibit drug–drug interactions”.

What about the IC50 [6] of the same compound?
Its IC50 is > 25 µM.

What about the metabolized [7] of the same compound?
Its metabolized is 49%.

And the remaining at 2 h, 50 µM [7]?
Its remaining at 2 h, 50 µM is 51.1%.

What about the IC50 (HEK293) of the same compound?
The IC50 was 81.8 µM.

And the IC50 (U-251 glioblastoma cells)?
The IC50 was > 25 µM.

And the Ki (5-HT5A receptor)?
The Ki was 1.11 µM.

What about the “hepatotoxicity, HepG2 viability” value [8] of the same compound?
Its value is “did not exhibit hepatotoxic properties”.

What about the IC50 (astrocyte cell line PG-4) of the same compound?
Its IC50 is > 25 µM.

Which LC50 at 96 h [1] does the source give for `CC1NC(NS(=O)(=O)c2cccc3ccccc23)=Nc2cccc(F)c21` (centres unmarked) [PR 73, N -(5-fluoro-4-methyl-3,4-dihydroquinazolin-2-yl)naphthalene-1-sulfonamide] here?
The LC50 at 96 h was 10.2 µg/mL (≈ 27.5 µM).

What about the Ki (human 5-HT6 [2]) of the same compound?
The Ki was 0.043 ± 0.011 µM.

What about the IC50 [3] of the same compound?
Its IC50 is > 25 µM.

And the Kb (human 5-HT6 [4])?
The Kb was 0.134 µM.

What about the Ki (5-HT7b receptor) of the same compound?
Its Ki is 35.8 µM.

And the IC50 [5]?
The IC50 was > 25 µM.

What about the IC50 [6] of the same compound?
The IC50 was > 25 µM.

And the remaining at 2 h, 50 µM [7]?
Its remaining at 2 h, 50 µM is 24.6%.

And the IC50 (U-251 glioblastoma cells)?
The IC50 was > 25 µM.

What about the IC50 (astrocyte cell line PG-4) of the same compound?
Its IC50 is > 25 µM.
